The conditions of series [1]: amide bond.
For series [2] the following is noted: from CC(C)c1nccc(CCC(=O)O)c1-n1c(=O)[nH]c(=O)c2cc(F)c(-c3c(N)cccc3Cl)nc21; amide bond; 12-membered ring; T3P; DCE; 39.3 mM; 50.0 °C.

Molecules are shown by their SMILES. Read-outs that look alike come from different tables or passages of the source.

In turn, `CC(C)c1nccc2c1-n1c(=O)[nH]c(=O)c3cc(F)c(nc31)-c1c(Cl)cccc1NC(=O)CC2` gave a ring closure, yield of all isomers in series [1] (from CC(C)c1nccc(CCC(=O)O)c1-n1c(=O)[nH]c(=O)c2cc(F)c(-c3c(N)cccc3Cl)nc21, T3P, DCE, 39.3 mM, 50.0 °C, 1.0 h) of 29%. For the same molecule, in series [2], the ring closure, isolated yield came to 29%.

For `CC(C)c1nccc2c1-n1c(=O)[nH]c(=O)c3cc(F)c(nc31)-c1c(F)cccc1NC(=O)CCS2`, the ring closure, yield of all isomers in series [1] (from CC(C)c1nccc(SCCC(=O)O)c1-n1c(=O)[nH]c(=O)c2cc(F)c(-c3c(N)cccc3F)nc21, T3P, DCE, 58.3 mM, 55.0 °C, 16.0 h) was 37.4%. Take `CC(C)c1nccc2c1-n1c(=O)nc(O)c3cc(F)c(nc31)-c1c(F)cccc1NC(=O)CS2`: the ring closure, yield of all isomers in series [1] (from CC(C)c1nccc(SCC(=O)OC(C)(C)C)c1-n1c(=O)nc(O)c2cc(F)c(-c3c(N)cccc3F)nc21, TCFH/N-methylimidazole, DMF, 7.2 mM, 25.0 °C, 1.0 h, 2 steps) amounted to 44.4%.

Source of the values: patent publication US20220153741A1, “HETEROCYCLIC COMPOUNDS AS INHIBITORS OF KRAS G12C” (Guangdong Newopp Biopharmaceuticals Co., Ltd., priority 2019, published 2022).
